Data as given in the OligoGym collection.
Oligonucleotides are given in HELM: sugar(base)linkage, 5' to 3'; d 2'-deoxyribose, r ribose, m 2'-O-methylribose, p phosphate. ss, as = sense and antisense strand

biological target: Mmp7 (rat); test: reporter assay of Huesken 2005; settings: siRNA
Note: test concentration or dose not given here.

Substance	normalised inhibition (eCFP-eYFP dual reporter) [%]
RNA1{r(G)p.r(C)p.r(C)p.r(U)p.r(U)p.r(U)p.r(G)p.r(C)p.r(A)p.r(C)p.r(C)p.r(G)p.r(G)p.r(G)p.r(G)p.r(C)p.r(C)p.r(A)p.r(G)p.d(T)p.d(T)}|RNA2{r(C)p.r(U)p.r(G)p.r(G)p.r(C)p.r(C)p.r(C)p.r(C)p.r(G)p.r(G)p.r(U)p.r(G)p.r(C)p.r(A)p.r(A)p.r(A)p.r(G)p.r(G)p.r(C)p.d(A)p.d(T)}$$$RNA1{StrandType:ss}|RNA2{StrandType:as}$	32.6
RNA1{r(G)p.r(C)p.r(G)p.r(G)p.r(A)p.r(G)p.r(A)p.r(U)p.r(G)p.r(C)p.r(U)p.r(C)p.r(A)p.r(C)p.r(U)p.r(U)p.r(U)p.r(G)p.r(A)p.d(T)p.d(T)}|RNA2{r(U)p.r(C)p.r(A)p.r(A)p.r(A)p.r(G)p.r(U)p.r(G)p.r(A)p.r(G)p.r(C)p.r(A)p.r(U)p.r(C)p.r(U)p.r(C)p.r(C)p.r(G)p.r(C)p.d(C)p.d(G)}$$$RNA1{StrandType:ss}|RNA2{StrandType:as}$	108
RNA1{r(G)p.r(C)p.r(U)p.r(C)p.r(A)p.r(C)p.r(U)p.r(U)p.r(U)p.r(G)p.r(A)p.r(C)p.r(A)p.r(A)p.r(G)p.r(G)p.r(A)p.r(U)p.r(G)p.d(T)p.d(T)}|RNA2{r(C)p.r(A)p.r(U)p.r(C)p.r(C)p.r(U)p.r(U)p.r(G)p.r(U)p.r(C)p.r(A)p.r(A)p.r(A)p.r(G)p.r(U)p.r(G)p.r(A)p.r(G)p.r(C)p.d(A)p.d(T)}$$$RNA1{StrandType:ss}|RNA2{StrandType:as}$	102
RNA1{r(G)p.r(C)p.r(U)p.r(G)p.r(C)p.r(C)p.r(U)p.r(G)p.r(G)p.r(C)p.r(C)p.r(C)p.r(U)p.r(G)p.r(C)p.r(C)p.r(A)p.r(C)p.r(U)p.d(T)p.d(T)}|RNA2{r(A)p.r(G)p.r(U)p.r(G)p.r(G)p.r(C)p.r(A)p.r(G)p.r(G)p.r(G)p.r(C)p.r(C)p.r(A)p.r(G)p.r(G)p.r(C)p.r(A)p.r(G)p.r(C)p.d(C)p.d(T)}$$$RNA1{StrandType:ss}|RNA2{StrandType:as}$	64.3
RNA1{r(G)p.r(C)p.r(U)p.r(U)p.r(C)p.r(G)p.r(C)p.r(A)p.r(A)p.r(G)p.r(G)p.r(G)p.r(G)p.r(A)p.r(G)p.r(A)p.r(U)p.r(C)p.r(A)p.d(T)p.d(T)}|RNA2{r(U)p.r(G)p.r(A)p.r(U)p.r(C)p.r(U)p.r(C)p.r(C)p.r(C)p.r(C)p.r(U)p.r(U)p.r(G)p.r(C)p.r(G)p.r(A)p.r(A)p.r(G)p.r(C)p.d(C)p.d(A)}$$$RNA1{StrandType:ss}|RNA2{StrandType:as}$	105
RNA1{r(G)p.r(G)p.r(A)p.r(A)p.r(A)p.r(C)p.r(A)p.r(C)p.r(U)p.r(C)p.r(U)p.r(A)p.r(G)p.r(G)p.r(C)p.r(C)p.r(A)p.r(U)p.r(G)p.d(T)p.d(T)}|RNA2{r(C)p.r(A)p.r(U)p.r(G)p.r(G)p.r(C)p.r(C)p.r(U)p.r(A)p.r(G)p.r(A)p.r(G)p.r(U)p.r(G)p.r(U)p.r(U)p.r(U)p.r(C)p.r(C)p.d(T)p.d(G)}$$$RNA1{StrandType:ss}|RNA2{StrandType:as}$	89.7
RNA1{r(G)p.r(G)p.r(A)p.r(A)p.r(A)p.r(U)p.r(U)p.r(U)p.r(U)p.r(A)p.r(C)p.r(C)p.r(U)p.r(U)p.r(C)p.r(A)p.r(C)p.r(G)p.r(A)p.d(T)p.d(T)}|RNA2{r(U)p.r(C)p.r(G)p.r(U)p.r(G)p.r(A)p.r(A)p.r(G)p.r(G)p.r(U)p.r(A)p.r(A)p.r(A)p.r(A)p.r(U)p.r(U)p.r(U)p.r(C)p.r(C)p.d(T)p.d(A)}$$$RNA1{StrandType:ss}|RNA2{StrandType:as}$	127
RNA1{r(G)p.r(G)p.r(A)p.r(A)p.r(C)p.r(A)p.r(G)p.r(G)p.r(C)p.r(G)p.r(C)p.r(A)p.r(G)p.r(A)p.r(A)p.r(U)p.r(U)p.r(A)p.r(U)p.d(T)p.d(T)}|RNA2{r(A)p.r(U)p.r(A)p.r(A)p.r(U)p.r(U)p.r(C)p.r(U)p.r(G)p.r(C)p.r(G)p.r(C)p.r(C)p.r(U)p.r(G)p.r(U)p.r(U)p.r(C)p.r(C)p.d(C)p.d(A)}$$$RNA1{StrandType:ss}|RNA2{StrandType:as}$	104
RNA1{r(G)p.r(G)p.r(A)p.r(A)p.r(G)p.r(C)p.r(C)p.r(G)p.r(G)p.r(A)p.r(G)p.r(A)p.r(A)p.r(G)p.r(U)p.r(G)p.r(A)p.r(C)p.r(C)p.d(T)p.d(T)}|RNA2{r(G)p.r(G)p.r(U)p.r(C)p.r(A)p.r(C)p.r(U)p.r(U)p.r(C)p.r(U)p.r(C)p.r(C)p.r(G)p.r(G)p.r(C)p.r(U)p.r(U)p.r(C)p.r(C)p.d(T)p.d(G)}$$$RNA1{StrandType:ss}|RNA2{StrandType:as}$	83
RNA1{r(G)p.r(G)p.r(A)p.r(C)p.r(A)p.r(A)p.r(A)p.r(C)p.r(U)p.r(G)p.r(A)p.r(G)p.r(G)p.r(G)p.r(A)p.r(A)p.r(A)p.r(U)p.r(G)p.d(T)p.d(T)}|RNA2{r(C)p.r(A)p.r(U)p.r(U)p.r(U)p.r(C)p.r(C)p.r(C)p.r(U)p.r(C)p.r(A)p.r(G)p.r(U)p.r(U)p.r(U)p.r(G)p.r(U)p.r(C)p.r(C)p.d(A)p.d(C)}$$$RNA1{StrandType:ss}|RNA2{StrandType:as}$	83
RNA1{r(G)p.r(G)p.r(A)p.r(C)p.r(G)p.r(G)p.r(A)p.r(U)p.r(G)p.r(G)p.r(U)p.r(G)p.r(A)p.r(G)p.r(G)p.r(A)p.r(C)p.r(U)p.r(C)p.d(T)p.d(T)}|RNA2{r(G)p.r(A)p.r(G)p.r(U)p.r(C)p.r(C)p.r(U)p.r(C)p.r(A)p.r(C)p.r(C)p.r(A)p.r(U)p.r(C)p.r(C)p.r(G)p.r(U)p.r(C)p.r(C)p.d(A)p.d(G)}$$$RNA1{StrandType:ss}|RNA2{StrandType:as}$	81.1
RNA1{r(G)p.r(G)p.r(A)p.r(C)p.r(U)p.r(C)p.r(A)p.r(G)p.r(G)p.r(C)p.r(G)p.r(U)p.r(G)p.r(A)p.r(A)p.r(C)p.r(U)p.r(U)p.r(C)p.d(T)p.d(T)}|RNA2{r(G)p.r(A)p.r(A)p.r(G)p.r(U)p.r(U)p.r(C)p.r(A)p.r(C)p.r(G)p.r(C)p.r(C)p.r(U)p.r(G)p.r(A)p.r(G)p.r(U)p.r(C)p.r(C)p.d(T)p.d(C)}$$$RNA1{StrandType:ss}|RNA2{StrandType:as}$	70.4
RNA1{r(G)p.r(G)p.r(A)p.r(G)p.r(A)p.r(C)p.r(U)p.r(G)p.r(G)p.r(A)p.r(A)p.r(A)p.r(G)p.r(C)p.r(U)p.r(G)p.r(U)p.r(C)p.r(C)p.d(T)p.d(T)}|RNA2{r(G)p.r(G)p.r(A)p.r(C)p.r(A)p.r(G)p.r(C)p.r(U)p.r(U)p.r(U)p.r(C)p.r(C)p.r(A)p.r(G)p.r(U)p.r(C)p.r(U)p.r(C)p.r(C)p.d(G)p.d(G)}$$$RNA1{StrandType:ss}|RNA2{StrandType:as}$	88.7
RNA1{r(G)p.r(G)p.r(A)p.r(G)p.r(U)p.r(A)p.r(U)p.r(G)p.r(C)p.r(A)p.r(A)p.r(A)p.r(U)p.r(C)p.r(C)p.r(C)p.r(A)p.r(C)p.r(U)p.d(T)p.d(T)}|RNA2{r(A)p.r(G)p.r(U)p.r(G)p.r(G)p.r(G)p.r(A)p.r(U)p.r(U)p.r(U)p.r(G)p.r(C)p.r(A)p.r(U)p.r(A)p.r(C)p.r(U)p.r(C)p.r(C)p.d(A)p.d(C)}$$$RNA1{StrandType:ss}|RNA2{StrandType:as}$	96.7
RNA1{r(G)p.r(G)p.r(C)p.r(C)p.r(A)p.r(C)p.r(U)p.r(C)p.r(U)p.r(C)p.r(U)p.r(G)p.r(G)p.r(G)p.r(U)p.r(C)p.r(U)p.r(G)p.r(G)p.d(T)p.d(T)}|RNA2{r(C)p.r(C)p.r(A)p.r(G)p.r(A)p.r(C)p.r(C)p.r(C)p.r(A)p.r(G)p.r(A)p.r(G)p.r(A)p.r(G)p.r(U)p.r(G)p.r(G)p.r(C)p.r(C)p.d(A)p.d(A)}$$$RNA1{StrandType:ss}|RNA2{StrandType:as}$	41.4
RNA1{r(G)p.r(G)p.r(C)p.r(C)p.r(A)p.r(G)p.r(G)p.r(A)p.r(A)p.r(A)p.r(C)p.r(A)p.r(C)p.r(U)p.r(C)p.r(U)p.r(A)p.r(G)p.r(G)p.d(T)p.d(T)}|RNA2{r(C)p.r(C)p.r(U)p.r(A)p.r(G)p.r(A)p.r(G)p.r(U)p.r(G)p.r(U)p.r(U)p.r(U)p.r(C)p.r(C)p.r(U)p.r(G)p.r(G)p.r(C)p.r(C)p.d(C)p.d(A)}$$$RNA1{StrandType:ss}|RNA2{StrandType:as}$	54.5
RNA1{r(G)p.r(G)p.r(C)p.r(G)p.r(C)p.r(A)p.r(G)p.r(A)p.r(A)p.r(U)p.r(U)p.r(A)p.r(U)p.r(C)p.r(U)p.r(U)p.r(A)p.r(G)p.r(G)p.d(T)p.d(T)}|RNA2{r(C)p.r(C)p.r(U)p.r(A)p.r(A)p.r(G)p.r(A)p.r(U)p.r(A)p.r(A)p.r(U)p.r(U)p.r(C)p.r(U)p.r(G)p.r(C)p.r(G)p.r(C)p.r(C)p.d(T)p.d(G)}$$$RNA1{StrandType:ss}|RNA2{StrandType:as}$	134
RNA1{r(G)p.r(G)p.r(G)p.r(A)p.r(A)p.r(C)p.r(A)p.r(G)p.r(G)p.r(C)p.r(G)p.r(C)p.r(A)p.r(G)p.r(A)p.r(A)p.r(U)p.r(U)p.r(A)p.d(T)p.d(T)}|RNA2{r(U)p.r(A)p.r(A)p.r(U)p.r(U)p.r(C)p.r(U)p.r(G)p.r(C)p.r(G)p.r(C)p.r(C)p.r(U)p.r(G)p.r(U)p.r(U)p.r(C)p.r(C)p.r(C)p.d(A)p.d(C)}$$$RNA1{StrandType:ss}|RNA2{StrandType:as}$	93.6
RNA1{r(G)p.r(G)p.r(G)p.r(A)p.r(G)p.r(A)p.r(U)p.r(C)p.r(A)p.r(C)p.r(G)p.r(G)p.r(A)p.r(G)p.r(A)p.r(C)p.r(A)p.r(A)p.r(C)p.d(T)p.d(T)}|RNA2{r(G)p.r(U)p.r(U)p.r(G)p.r(U)p.r(C)p.r(U)p.r(C)p.r(C)p.r(G)p.r(U)p.r(G)p.r(A)p.r(U)p.r(C)p.r(U)p.r(C)p.r(C)p.r(C)p.d(C)p.d(T)}$$$RNA1{StrandType:ss}|RNA2{StrandType:as}$	94.2
RNA1{r(G)p.r(G)p.r(G)p.r(C)p.r(C)p.r(A)p.r(G)p.r(G)p.r(A)p.r(A)p.r(A)p.r(C)p.r(A)p.r(C)p.r(U)p.r(C)p.r(U)p.r(A)p.r(G)p.d(T)p.d(T)}|RNA2{r(C)p.r(U)p.r(A)p.r(G)p.r(A)p.r(G)p.r(U)p.r(G)p.r(U)p.r(U)p.r(U)p.r(C)p.r(C)p.r(U)p.r(G)p.r(G)p.r(C)p.r(C)p.r(C)p.d(A)p.d(T)}$$$RNA1{StrandType:ss}|RNA2{StrandType:as}$	83.5
